These molecules were tested on T-Rex 293 cells having increased expression of estrogen receptor alpha protein (assay: Cellular growth inhibition assay, T-Rex 293 cells, (+) doxycycline). Conditions: T-REx-293, 72 h, Table 7-A; T-Rex 293 cells with doxycycline (increased ERα expression); 72 hours; CellTiter-Glo; read-out: (+) Dox GI50.
Assay type: cell-based
Method in brief: (§1)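 Growth of a doxycycline-inducible ERα T-Rex 293 clone, induced or not with 3 ng/mL doxycycline, was followed for 72 h with test compound in hormone-depleted medium. CellTiter-Glo luminescence gave GI50.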

For Cc1sc2c(c1C)C(c1ccc(N3CCC(O)(CN4CCN(c5ccc(C6=C(c7ccc(Cl)cc7Cl)CCCc7cc(C(=O)O)ccc76)cc5)CC4)CC3)cc1)=N[C@@H](Cc1ncco1)c1nnc(C)n1-2 [IV-31], which GI50 is on record?
Its GI50 is less than 50 nM.

How did the GI50 turn out when Cc1sc2c(c1C)C(c1ccc(C3CN(C[C@H]4CC[C@H](CN5CC(c6ccc(C7=C(c8ccccc8)CCCc8cc(C(=O)O)ccc87)cc6)C5)CC4)C3)cc1)=N[C@@H](C)c1nnc(C)n1-2 [IV-32] was run?
Its GI50 is less than 50 nM.

Cc1sc2c(c1C)C(c1ccc(N3CCC(O)(CN4CCN(c5ccc(C6=C(c7ccccc7)CCCc7cc(C(=O)O)ccc76)cc5F)CC4)CC3)cc1)=N[C@@H](C)c1nnc(C)n1-2 [IV-33] was tested. Which GI50 did it give?
Its GI50 is less than 50 nM.

Cc1sc2c(c1C)C(c1ccc(N3CCC(O)(CN4CCN(c5ccc(C6=C(c7ccccc7Cl)CCCc7cc(C(=O)O)ccc76)c(F)c5)CC4)CC3)cc1)=N[C@@H](C)c1nnc(C)n1-2 [IV-34] was tested. Which GI50 did it give?
The GI50 was less than 50 nM.

Which GI50 does the source give for Cc1sc2c(c1C)C(c1ccc(N3CCC(O)(CN4CCN(c5ccc(C6=C(c7ccccc7Cl)CCCc7cc(C(=O)O)ccc76)cc5F)CC4)CC3)cc1)=N[C@@H](C)c1nnc(C)n1-2 [IV-35] here?
Its GI50 is less than 50 nM.

With Cc1sc2c(c1C)C(c1ccc(N3CC(CN4CC(CC5CN(c6ccc(C7=C(c8ccccc8)CCCc8cc(C(=O)O)ccc87)cc6)C5)C4)C3)cc1)=N[C@@H](C)c1nnc(C)n1-2 [IV-36] as the molecule, how does the GI50 read?
Its GI50 is less than 50 nM.

With Cc1sc2c(c1C)C(c1ccc(N3CCC(O)(CN4CCN(c5ccc(C6=C(c7ccc(F)cc7)CCCc7cc(C(=O)O)ccc76)cc5)CC4)CC3)cc1)=N[C@@H](C)c1nnc(C)n1-2 [IV-37] as the molecule, how does the GI50 read?
The GI50 was less than 50 nM.

For Cc1sc2c(c1C)C(c1ccc(N3CC(CN4CCN(CC5CN(c6ccc(C7=C(c8ccc(F)cc8)CCCc8cc(C(=O)O)ccc87)cc6)C5)CC4)C3)cc1)=N[C@@H](C)c1nnc(C)n1-2 [IV-38], which GI50 is on record?
The GI50 was less than 50 nM.

Which GI50 does the source give for Cc1sc2c(c1C)C(c1ccc(N3CCC(CN4CCN(c5ccc(C6=C(c7ccccc7)CCCc7cc(O)ccc76)cc5)CC4)CC3)cc1)=N[C@@H](C)c1nnc(C)n1-2 [IV-39] here?
The GI50 was less than 50 nM.

What follows are molecules tested on T-Rex 293 cells lacking increased expression of estrogen receptor alpha protein (assay: Cellular growth inhibition assay, T-Rex 293 cells, (−) doxycycline). Conditions: T-REx-293, 72 h, Table 7-A; T-Rex 293 cells without doxycycline (lacking increased ERα expression); 72 hours; CellTiter-Glo; read-out: (−) Dox GI50.
Assay type: cell-based
Method in brief: as §1

For Cc1sc2c(c1C)C(c1ccc(N3CCC(O)(CN4CCN(c5ccc(C6=C(c7ccc(Cl)cc7Cl)CCCc7cc(C(=O)O)ccc76)cc5)CC4)CC3)cc1)=N[C@@H](Cc1ncco1)c1nnc(C)n1-2 [IV-31], which GI50 is on record?
The GI50 was 50 to 500 nM.

For Cc1sc2c(c1C)C(c1ccc(C3CN(C[C@H]4CC[C@H](CN5CC(c6ccc(C7=C(c8ccccc8)CCCc8cc(C(=O)O)ccc87)cc6)C5)CC4)C3)cc1)=N[C@@H](C)c1nnc(C)n1-2 [IV-32], which GI50 is on record?
The GI50 was 50 to 500 nM.

How did the GI50 turn out when Cc1sc2c(c1C)C(c1ccc(N3CCC(O)(CN4CCN(c5ccc(C6=C(c7ccccc7)CCCc7cc(C(=O)O)ccc76)cc5F)CC4)CC3)cc1)=N[C@@H](C)c1nnc(C)n1-2 [IV-33] was run?
The GI50 was 500 to 2500 nM.

How did the GI50 turn out when Cc1sc2c(c1C)C(c1ccc(N3CCC(O)(CN4CCN(c5ccc(C6=C(c7ccccc7Cl)CCCc7cc(C(=O)O)ccc76)c(F)c5)CC4)CC3)cc1)=N[C@@H](C)c1nnc(C)n1-2 [IV-34] was run?
The GI50 was 50 to 500 nM.

With Cc1sc2c(c1C)C(c1ccc(N3CCC(O)(CN4CCN(c5ccc(C6=C(c7ccccc7Cl)CCCc7cc(C(=O)O)ccc76)cc5F)CC4)CC3)cc1)=N[C@@H](C)c1nnc(C)n1-2 [IV-35] as the molecule, how does the GI50 read?
The GI50 was 500 to 2500 nM.

How did the GI50 turn out when Cc1sc2c(c1C)C(c1ccc(N3CC(CN4CC(CC5CN(c6ccc(C7=C(c8ccccc8)CCCc8cc(C(=O)O)ccc87)cc6)C5)C4)C3)cc1)=N[C@@H](C)c1nnc(C)n1-2 [IV-36] was run?
Its GI50 is 50 to 500 nM.

Cc1sc2c(c1C)C(c1ccc(N3CCC(O)(CN4CCN(c5ccc(C6=C(c7ccc(F)cc7)CCCc7cc(C(=O)O)ccc76)cc5)CC4)CC3)cc1)=N[C@@H](C)c1nnc(C)n1-2 [IV-37] was tested. Which GI50 did it give?
The GI50 was 500 to 2500 nM.

How did the GI50 turn out when Cc1sc2c(c1C)C(c1ccc(N3CC(CN4CCN(CC5CN(c6ccc(C7=C(c8ccc(F)cc8)CCCc8cc(C(=O)O)ccc87)cc6)C5)CC4)C3)cc1)=N[C@@H](C)c1nnc(C)n1-2 [IV-38] was run?
The GI50 was 500 to 2500 nM.

Cc1sc2c(c1C)C(c1ccc(N3CCC(CN4CCN(c5ccc(C6=C(c7ccccc7)CCCc7cc(O)ccc76)cc5)CC4)CC3)cc1)=N[C@@H](C)c1nnc(C)n1-2 [IV-39] was tested. Which GI50 did it give?
The GI50 was greater than 2500 nM.

Each molecule was assayed on MCF7 cells (ATCC #HTB-22) (assay: Cellular growth inhibition assay, MCF7 cells purchased from ATCC). Conditions: Homo sapiens, MCF7, 144 h, Table 8-A; MCF7 cells purchased from ATCC; six days; CellTiter-Glo; read-out: GI50.
Assay type: cell-based
Method in brief: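 GI50 values come from a four-parameter fit of CellTiter-Glo 2.0 luminescence after six days of compound exposure at 37° C. Seeding density depended on the source: 225 cells/well for ECACC MCF7, 1,500 for ATCC. Medium was RPMI 1640 with 10% FBS and 0.2 U/ml insulin.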

For Cc1sc2c(c1C)C(c1ccc(N3CCC(O)(CN4CCN(c5ccc(C6=C(c7ccc(Cl)cc7Cl)CCCc7cc(C(=O)O)ccc76)cc5)CC4)CC3)cc1)=N[C@@H](Cc1ncco1)c1nnc(C)n1-2 [IV-31], which GI50 is on record?
The GI50 was less than 50 nM.

Cc1sc2c(c1C)C(c1ccc(C3CN(C[C@H]4CC[C@H](CN5CC(c6ccc(C7=C(c8ccccc8)CCCc8cc(C(=O)O)ccc87)cc6)C5)CC4)C3)cc1)=N[C@@H](C)c1nnc(C)n1-2 [IV-32] was tested. Which GI50 did it give?
Its GI50 is 50 to 500 nM.

How did the GI50 turn out when Cc1sc2c(c1C)C(c1ccc(N3CCC(O)(CN4CCN(c5ccc(C6=C(c7ccccc7)CCCc7cc(C(=O)O)ccc76)cc5F)CC4)CC3)cc1)=N[C@@H](C)c1nnc(C)n1-2 [IV-33] was run?
Its GI50 is less than 50 nM.

For Cc1sc2c(c1C)C(c1ccc(N3CCC(O)(CN4CCN(c5ccc(C6=C(c7ccccc7Cl)CCCc7cc(C(=O)O)ccc76)c(F)c5)CC4)CC3)cc1)=N[C@@H](C)c1nnc(C)n1-2 [IV-34], which GI50 is on record?
Its GI50 is less than 50 nM.

Cc1sc2c(c1C)C(c1ccc(N3CCC(O)(CN4CCN(c5ccc(C6=C(c7ccccc7Cl)CCCc7cc(C(=O)O)ccc76)cc5F)CC4)CC3)cc1)=N[C@@H](C)c1nnc(C)n1-2 [IV-35] was tested. Which GI50 did it give?
The GI50 was less than 50 nM.

Which GI50 does the source give for Cc1sc2c(c1C)C(c1ccc(N3CC(CN4CC(CC5CN(c6ccc(C7=C(c8ccccc8)CCCc8cc(C(=O)O)ccc87)cc6)C5)C4)C3)cc1)=N[C@@H](C)c1nnc(C)n1-2 [IV-36] here?
The GI50 was less than 50 nM.

For Cc1sc2c(c1C)C(c1ccc(N3CCC(O)(CN4CCN(c5ccc(C6=C(c7ccc(F)cc7)CCCc7cc(C(=O)O)ccc76)cc5)CC4)CC3)cc1)=N[C@@H](C)c1nnc(C)n1-2 [IV-37], which GI50 is on record?
The GI50 was less than 50 nM.

For Cc1sc2c(c1C)C(c1ccc(N3CC(CN4CCN(CC5CN(c6ccc(C7=C(c8ccc(F)cc8)CCCc8cc(C(=O)O)ccc87)cc6)C5)CC4)C3)cc1)=N[C@@H](C)c1nnc(C)n1-2 [IV-38], which GI50 is on record?
The GI50 was less than 50 nM.

With Cc1sc2c(c1C)C(c1ccc(N3CCC(CN4CCN(c5ccc(C6=C(c7ccccc7)CCCc7cc(O)ccc76)cc5)CC4)CC3)cc1)=N[C@@H](C)c1nnc(C)n1-2 [IV-39] as the molecule, how does the GI50 read?
The GI50 was 50 to 500 nM.
